Legend:
Assay type in all cases: physicochemical
[1] = Particle size analysis of micronized product, laser diffraction (Sympatec HELOS/RODOS, dry dispersion); settings: micronized twice, air jet mill; dry dispersion at 4 bar
Source text: The instrumental set-up for particle size analysis: • Laser diffraction pattern analyzer (Sympatec HELOS, H1970 & RODOS, R3:0.5/0.9 . . . 175 μm), 100 mm focal length, • Dry dispersion (RODOS) at 4 bar, • Mathematical model (LD 5.9.0.0)-Sympatec Code, basis Fraunhofer Diffraction

[2] = Particle size distribution by laser diffraction (Malvern Panalytical Mastersizer 3000, Fraunhofer)
Experimental: The particle size distribution was measured by laser diffraction using the Malvern Panalytical Mastersizer 3000.
The samples are again taken from example 1.6 (probe 1) and example 1.5 (probe 2), the same as used in example 4.
The sample to be analyzed is dispersed in 1 drop of Tween 80 the sample is processed according to ISO13320.
Laser diffraction is an often-used method for determination the particle size of dispersed solid materials. A widened laser beam illuminates a cuvette which contains part of the particles. By diffraction on the particles a characteristic pattern can be mapped on the detector. The resulting diffraction image is the additive overlaying of diffraction images of all particles.
Besides the mentioned detector two additional detectors are mounted in order to detect diffraction light in forward direction (FA1,9), in wide angle (LA1,2) and in back direction (BS1,2). The turbidity of the sample is measured by an extinction sensor. This is necessary to ensure a low particle concentration which is necessary to avoid wrong results by multiple diffraction of light at several particles.
The cuvette used was a wet unit where the suspension is pumped in a closed circuit with a dispersing unit that ensures a separation of single particles by shear forces.
The measurement range of the Malvern 3000 covers a particle size from 1 mm (2 mm) down to 20 nm
The calculation of the particle size distribution from the diffraction patterns was done on basis of theory of Fraunhofer.
This assumption is valid for particle sizes of 10 to 50 μm and above. For smaller particles the light scattering of the particle itself due to optical transparency must be considered which is done in the Mie-theory (not used for our probes). Precondition of the application of the Mie-theory is the knowledge of the refractive and absorption index of the dispersed solids.
Q3 is the cumulative volume distribution, e.g. D50=Q(50%) indicates 50% of the volume part of the sample is smaller than particle size of 50 μm.
The particle size is expressed as an equivalent diameter used in the method recommended by the Malvern Analysis Program and as described in ISO13320.

[3] = Hygroscopicity classification applying the Pharmacopeia rules
Source text: The shear cell was fully filled with a sample of powder of the compound of formula (I) thereby preventing condensing the powder. Both samples, sample 1 and sample 2, were classified as non-hydroscopic applying the Pharmacopeia rules.

[4] = Determination of bulk density during shear tests; settings: during shear test, normal stress 1.5 kPa
Experimental: Because of the normal stress of 1.5 kPa applied on the top of the lid during the shear test the lid lowers into the shear cell and compresses the powder.
During the shear tests this lowering of the lid is measured and recorded. Since the volume of the bottom ring is known and weight of the sample measured before the beginning of the shear test the bulk density of the sample during the shear test is calculated
[formula] • with: • ρb,shear: Bulk density under shear • mges: total mass of shear cell including powder sample (w/o lid) • mcell: net mass of shear cell (w/o powder sample, w/o lid) • hc: height of the bottom ring • hl: lowering of lid • Acell: bottom area of shear cell
The calculation of the bulk density is done automatically with the evaluation software provided together with the shear tester.

[5] = without ultrasound (US), listed as Probe 1

## C[C@@H]1OC(=O)NN=C1c1ccc(-c2ccc(F)cc2)c(C(F)(F)F)c1 [micronized product, (6S)-5-[4′-fluoro-2-(trifluoromethyl)[biphenyl]-4-yl]-6-methyl-3,6-dihydro-2H-1,3,4-oxadiazin-2-one]
[1]
  Particle Size distribution X10: 1.2 μm
  Particle Size distribution X50: 4 μm
  Particle Size distribution X90: 10 μm

## C[C@@H]1OC(=O)NN=C1c1ccc(-c2ccc(F)cc2)c(C(F)(F)F)c1 [polymorph A, (6S)-5-[4′-Fluoro-2-(trifluoromethyl)biphenyl-4-yl]-6-methyl-3,6-dihydro-2H-1,3,4-oxadiazin-2-one]
[2]
  difference between Q3[50] of untreated sample and sample treated 300 s with ultrasound: large
[2]; 300 s US, listed as Probe 1
  D(10): 4.02 μm
  D(50): 44 μm
  D(90): 128 μm
[2]; after US treatment of 300 s, compared to polymorph C
  amount of fines: significantly larger
[2]; after ultrasound treatment
  particle size distribution compared to polymorph C: significantly smaller particle size and broader distribution
[2]; particle size D 0.01 μm, 300 s US
  Cumulative volume distribution Q: 0%
[2]; particle size D 0.01 μm, without US
  Cumulative volume distribution Q: 0%
[2]; particle size D 0.0114 μm, 300 s US
  Cumulative volume distribution Q: 0%
[2]; particle size D 0.0114 μm, without US
  Cumulative volume distribution Q: 0%
[2]; particle size D 0.0129 μm, 300 s US
  Cumulative volume distribution Q: 0%
[2]; particle size D 0.0129 μm, without US
  Cumulative volume distribution Q: 0%
[2]; particle size D 0.0147 μm, 300 s US
  Cumulative volume distribution Q: 0%
[2]; particle size D 0.0147 μm, without US
  Cumulative volume distribution Q: 0%
[2]; particle size D 0.0167 μm, 300 s US
  Cumulative volume distribution Q: 0%
[2]; particle size D 0.0167 μm, without US
  Cumulative volume distribution Q: 0%
[2]; particle size D 0.0189 μm, 300 s US
  Cumulative volume distribution Q: 0%
[2]; particle size D 0.0189 μm, without US
  Cumulative volume distribution Q: 0%
[2]; particle size D 0.0215 μm, 300 s US
  Cumulative volume distribution Q: 0%
[2]; particle size D 0.0215 μm, without US
  Cumulative volume distribution Q: 0%
[2]; particle size D 0.0244 μm, 300 s US
  Cumulative volume distribution Q: 0%
[2]; particle size D 0.0244 μm, without US
  Cumulative volume distribution Q: 0%
[2]; particle size D 0.0278 μm, 300 s US
  Cumulative volume distribution Q: 0%
[2]; particle size D 0.0278 μm, without US
  Cumulative volume distribution Q: 0%
[2]; particle size D 0.0315 μm, 300 s US
  Cumulative volume distribution Q: 0%
[2]; particle size D 0.0315 μm, without US
  Cumulative volume distribution Q: 0%
[2]; particle size D 0.0358 μm, 300 s US
  Cumulative volume distribution Q: 0%
[2]; particle size D 0.0358 μm, without US
  Cumulative volume distribution Q: 0%
[2]; particle size D 0.0407 μm, 300 s US
  Cumulative volume distribution Q: 0%
[2]; particle size D 0.0407 μm, without US
  Cumulative volume distribution Q: 0%
[2]; particle size D 756 μm, 300 s US
  Cumulative volume distribution Q: 100%
[2]; particle size D 756 μm, without US, listed as Probe 1
  Cumulative volume distribution Q: 92.34%
[2]; particle size D 859 μm, 300 s US
  Cumulative volume distribution Q: 100%
[2]; particle size D 859 μm, without US, listed as Probe 1
  Cumulative volume distribution Q: 96.59%
[2]; particle size D 976 μm, 300 s US
  Cumulative volume distribution Q: 100%
[2]; particle size D 976 μm, without US, listed as Probe 1
  Cumulative volume distribution Q: 99.14%
[2]; particle size D 1110 μm, 300 s US
  Cumulative volume distribution Q: 100%
[2]; particle size D 1110 μm, without US
  Cumulative volume distribution Q: 100%
[2]; particle size D 1260 μm, 300 s US
  Cumulative volume distribution Q: 100%
[2]; particle size D 1260 μm, without US
  Cumulative volume distribution Q: 100%
[2]; particle size D 1430 μm, 300 s US
  Cumulative volume distribution Q: 100%
[2]; particle size D 1430 μm, without US
  Cumulative volume distribution Q: 100%
[2]; particle size D 1630 μm, 300 s US
  Cumulative volume distribution Q: 100%
[2]; particle size D 1630 μm, without US
  Cumulative volume distribution Q: 100%
[2]; particle size D 1850 μm, 300 s US
  Cumulative volume distribution Q: 100%
[2]; particle size D 1850 μm, without US
  Cumulative volume distribution Q: 100%
[2]; particle size D 2100 μm, 300 s US
  Cumulative volume distribution Q: 100%
[2]; particle size D 2100 μm, without US
  Cumulative volume distribution Q: 100%
[2]; particle size D 2390 μm, 300 s US
  Cumulative volume distribution Q: 100%
[2]; particle size D 2390 μm, without US
  Cumulative volume distribution Q: 100%
[2]; particle size D 2710 μm, 300 s US
  Cumulative volume distribution Q: 100%
[2]; particle size D 2710 μm, without US
  Cumulative volume distribution Q: 100%
[2]; particle size D 3080 μm, 300 s US
  Cumulative volume distribution Q: 100%
[2]; particle size D 3080 μm, without US
  Cumulative volume distribution Q: 100%
[2]; particle size D 3500 μm, 300 s US
  Cumulative volume distribution Q: 100%
[2]; particle size D 3500 μm, without US
  Cumulative volume distribution Q: 100%
[2]; [5]
  D(10): 165 μm
  D(50): 404 μm
  D(90): 720 μm
[2]; without ultrasound treatment
  particle size distribution compared to polymorph C: significantly broader particle size distribution and larger particles
[3]
  hygroscopicity classification: non-hydroscopic
[4]
  bulk density: 270 kg/m^3
